Marks after values point to notes of the source that are not given here.
Key:
Cynodon dactylon = assay: Greenhouse selectivity testing ex. 6.1, turf grass plants in 1-leaf stage, % injury
Method: Turf grass plants were grown in sandy loam soil in the greenhouse under good growing conditions up to the 1-leaf stage. In parallel tests, a formulation (water-dispersable powder) containing a mixture of the compounds no. […] The turf grass plants were further kept under good growing conditions. 7 days after application the selectivity was visually evaluated as percent (%) injury compared to untreated control plants.

weed plants = assay: Greenhouse herbicidal effect in weed control ex. 6.2 (Tables 34 to 37); type: in vivo; details: post-emergence; for Herbicidal effect (%) 7 DAT on Trifolium pratense: 3-leaves stage
Method: (§1) When the data observed already exceed the formal total (=E^A) of the data in the experiments with individual applications, they likewise exceed the expected value according to Colby, which is calculated using the formula below and is likewise regarded as an indication of synergism (cf. S. R. Colby; in Weeds 15 (1967) pp. 20 to 22): E=A+B−(A·B/100)

[1] = system: specific warm season turf grasses; assay: Field trial ex. 7.2, turf grass safety in post-emergence application (Table 40); type: in vivo
Source text: (§2) Seeds or rhizome pieces of monocotyledonous and dicotyledonous weed plants and specific warm season turf grasses were placed in the field in sandy loam soil, covered with soil and grown until the plants had reached the leaves stage indicated in the tables. […] The herbicidal effect was visually evaluated as percent (%) herbicidal effect compared to untreated control plants. The results are summarized in Table 40 below and show a synergistic increase in herbicidal effect of the mixtures of active ingredients and a good safety of the turf grass.

[2] = system: monocotyledonous and dicotyledonous weed plants; assay: Field trial ex. 7.1, weed control in pre-emergence application, 12 DAT (Tables 38, 39); type: in vivo
Method: as §1
Seeds or rhizome pieces of monocotyledonous and dicotyledonous weed plants were placed in the field in sandy loam soil and covered with soil. […] 12 days after application (12 DAT), the herbicidal effect on the developed weed plants was visually evaluated as percent (%) herbicidal effect compared to untreated control plants.

[3] = system: monocotyledonous and dicotyledonous weed plants; assay: Field trial ex. 7.2, weed control in post-emergence application (Table 40); type: in vivo; details: 2-leaves stage, 12 DAT
Method: as §1
(§3) In this formula: • A=action of active compound (A) in % at an application rate of a g of AS/ha; • B=action of active compound (B) in % at an application rate of b g of AS/ha; • E=expected value of the action of the combination (A)+(B) in % at the combined application rate a+b g of AS/ha.
as §2

Taraxacum officinalis = assay: Greenhouse herbicidal effect in weed control ex. 6.2, 1- to 2-leaves stage; type: in vivo
Source text: (§4) That means, when applying the combinations according to the invention, herbicidal effects are observed on a harmful plant species which exceed the formal total of the effects of the herbicides present when these are applied by themselves. Alternatively, it is observed in some cases that a lower application rate is required for the herbicide combination in order to achieve the same effect on a harmful plant species in comparison with the individual products.
as §1, §3
(§5) The data observed in the experiments show, at suitably low dosages, an action of the combinations which exceeds the expected values according to Colby (=E^C).

Capsella bursa pastoris = assay: Greenhouse herbicidal effect in weed control ex. 6.2, 2- to 3-leaves stage; type: in vivo
Source text: as §4, §1, §3, §5

[4] = Cynodon dactylon, in vivo, 7 days after application

Cc1cc(Cl)ccc1OCC(=O)O [MCPA, reference compound]
Selectivity evaluation (% injury) 7 DAT on Cynodon dactylon (Cynodon dactylon; 500 g a.i./ha, 7 DAT, greenhouse, 1-leaf stage): 0%
Herbicidal effect (%) 7 DAT on Trifolium pratense (weed plants; 500 g a.i./ha): 30%

COC(=O)c1ccc(CNS(C)(=O)=O)cc1S(=O)(=O)NC(=O)Nc1nc(OC)cc(OC)n1 [Mesosulfuron-methyl, reference compound]
Selectivity evaluation (% injury) 7 DAT on Cynodon dactylon (Cynodon dactylon; 5 g a.i./ha, 7 DAT, greenhouse, 1-leaf stage): 0%
Herbicidal effect (%) on Paspalum notatum (warm season turf grass) ([1]; in vivo): 0%
Herbicidal effect (%) 12 DAT on Brachiaria decumbens ([2]; Table 38, field, 5 g a.i./ha): 0%
Herbicidal effect (%) on Commelina benghalensis ([3]; 5 g a.i./ha): 47%

CCOC(=O)[C@@H](C)Oc1ccc(Oc2nc3ccc(Cl)cc3o2)cc1 [Fenoxaprop-P-ethyl]
Herbicidal effect (%) 7 DAT on Trifolium pratense (weed plants; 45 g a.i./ha): 0%
Herbicidal effect (%) 12 DAT on Brachiaria decumbens ([2]; Table 39, field, 60 g a.i./ha): 0%

COc1cc(OC)n2nc(S(=O)(=O)Nc3c(Cl)ccc(C)c3Cl)nc2n1 [Metosulam]
Selectivity evaluation (% injury) 7 DAT on Cynodon dactylon (Cynodon dactylon; [4]): 0%
Herbicidal effect (%) 7 DAT on Taraxacum officinalis (Taraxacum officinalis; 10 g a.i./ha): 10%

CCS(=O)(=O)c1cccnc1S(=O)(=O)NC(=O)Nc1nc(OC)cc(OC)n1 [Rimsulfuron, reference compound]
Selectivity evaluation (% injury) 7 DAT on Cynodon dactylon (Cynodon dactylon; [4]): 10%
Herbicidal effect (%) 7 DAT on Trifolium pratense (weed plants; 5 g a.i./ha): 40%

Nc1c(Cl)c(F)nc(OCC(=O)O)c1Cl [Fluroxypyr]
Selectivity evaluation (% injury) 7 DAT on Cynodon dactylon (Cynodon dactylon; [4]): 0%
Herbicidal effect (%) 7 DAT on Capsella bursa pastoris (Capsella bursa pastoris; 100 g a.i./ha): 60%

O=C(O)CNCP(=O)([O-])O.[K+] [Glyphosate-potassium salt (K salt)]
Herbicidal effect (%) on Paspalum notatum (warm season turf grass) ([1]; field, post-emergence, 3-leaves stage, 620 g a.i./ha, 7 DAT, turf grass used is not glyphosate tolerant): 23^5) %
Herbicidal effect (%) on Paspalum notatum (warm season turf grass) ([1]; field, post-emergence, 3-leaves stage, 840 g a.i./ha, 7 DAT, turf grass used is not glyphosate tolerant): 40^5) %
Herbicidal effect (%) 12 DAT on Brachiaria decumbens ([2]; Table 39, field, 620 g a.i./ha): 0%
Herbicidal effect (%) 12 DAT on Brachiaria decumbens ([2]; Table 39, field, 840 g a.i./ha): 0%
Herbicidal effect (%) on Commelina benghalensis ([3]; 620 g a.i./ha): 62%
Herbicidal effect (%) on Commelina benghalensis ([3]; 840 g a.i./ha): 62%

Cc1cc(Cl)ccc1O[C@@H](C)C(=O)O [Mecoprop-P]
Herbicidal effect (%) 7 DAT on Taraxacum officinalis (Taraxacum officinalis; 500 g a.i./ha): 20%

COC(=O)c1ccccc1S(=O)(=O)NC(=O)Nc1nc(C)nc(OC)n1 [Metsulfuron-methyl]
Herbicidal effect (%) 7 DAT on Trifolium pratense (weed plants; 5 g a.i./ha): 30%

CCOc1ccccc1OS(=O)(=O)NC(=O)Nc1nc(OC)cc(OC)n1 [Ethoxysulfuron]
Selectivity evaluation (% injury) 7 DAT on Cynodon dactylon (Cynodon dactylon; [4]): 0%
Herbicidal effect (%) 12 DAT on Brachiaria decumbens ([2]; Table 38, field, 30 g a.i./ha): 0%
Herbicidal effect (%) 7 DAT on Capsella bursa pastoris (Capsella bursa pastoris; 20 g a.i./ha): 50%

CCOC(=O)C(Cl)Cc1cc(-n2nc(C)n(C(F)F)c2=O)c(F)cc1Cl (stereo not drawn) [Carfentrazone-ethyl]
Herbicidal effect (%) on Paspalum notatum (warm season turf grass) ([1]; field, post-emergence, 3-leaves stage, 15 g a.i./ha, 7 DAT): 0%
Herbicidal effect (%) 7 DAT on Trifolium pratense (weed plants; 8 g a.i./ha): 0%
Herbicidal effect (%) 12 DAT on Brachiaria decumbens ([2]; Table 39, field, 15 g a.i./ha): 0%
Herbicidal effect (%) on Commelina benghalensis ([3]; 15 g a.i./ha): 59%

O=C(O)CNCP(=O)(O)O [Glyphosate]
Herbicidal effect (%) 7 DAT on Taraxacum officinalis (Taraxacum officinalis; 200 g a.i./ha): 40%

Nc1c(Cl)c(Cl)nc(C(=O)O)c1Cl [Picloram, reference compound]
Selectivity evaluation (% injury) 7 DAT on Cynodon dactylon (Cynodon dactylon; 300 g a.i./ha, 7 DAT, greenhouse, 1-leaf stage): 0%
Herbicidal effect (%) 7 DAT on Echinocloa crus-galli (weed plants; 3- to 4-leaves stage, 300 g a.i./ha): 30%

N#Cc1cc(Br)c(O)c(Br)c1 [Bromoxynil]
Herbicidal effect (%) 7 DAT on Capsella bursa pastoris (Capsella bursa pastoris; 100 g a.i./ha): 30%

From patent US8426342B2, “Method for weed control in lawn” (priority 2008, dated 2013)
